According to ChEMBL document CHEMBL1201862, “PubChem BioAssay data set” (2004):
Structures can show the parent of a compound that is named as a salt.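 96-well plates; 48 h exposure; 5 concentrations. Endpoints by linear interpolation between flanking doses. Not reached: highest tested concentration assigned. Here, GI50 denotes the concentration required for 50% inhibition of growth.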 Calls of active or inactive are those of the source. Cut-off read from the data, not from the text of the source: active = GI50 up to about 1.1 µM and inactive = higher.

Legend:
Experiment in all cases: NCI anticancer screen, dose series, 48 h
A498 = system: A498
BT-549 = system: BT-549
COLO 205 = system: COLO 205
HCT-116 = system: HCT-116
IGROV-1 = system: IGROV-1
MCF7 = system: MCF7
MDA-MB-231 = system: MDA-MB-231
MDA-MB-435 = system: MDA-MB-435
MDA-N = system: MDA-N
NCI-H226 = system: NCI-H226
OVCAR-4 = system: OVCAR-4
OVCAR-5 = system: OVCAR-5
SF-295 = system: SF-295
SF-539 = system: SF-539
SK-MEL-28 = system: SK-MEL-28
SN12C = system: SN12C
SNB-75 = system: SNB-75
U-251 = system: U-251
UACC-62 = system: UACC-62
UO-31 = system: UO-31

SMILES	GI50 (A498)	GI50 (BT-549)	GI50 (COLO 205)	GI50 (HCT-116)	GI50 (IGROV-1)	GI50 (MCF7)	GI50 (MDA-MB-231)	GI50 (MDA-MB-435)	GI50 (MDA-N)	GI50 (NCI-H226)	GI50 (OVCAR-4)	GI50 (OVCAR-5)	GI50 (SF-295)	GI50 (SF-539)	GI50 (SK-MEL-28)	GI50 (SN12C)	GI50 (SNB-75)	GI50 (U-251)	GI50 (UACC-62)	GI50 (UO-31)
CC1=CSC(O)(c2ccc(Cl)cc2)c2noc(=O)n21 (stereo not given)	> 100 µM (inactive)	> 100 µM (inactive)	> 100 µM (inactive)	53.5 µM (inactive)	> 100 µM (inactive)	66.4 µM (inactive)	> 100 µM (inactive)	30.1 µM (inactive)	88.3 µM (inactive)	> 100 µM (inactive)	> 100 µM (inactive)	> 100 µM (inactive)	> 100 µM (inactive)	> 100 µM (inactive)	29.2 µM (inactive)	> 100 µM (inactive)	61.7 µM (inactive)	> 10 µM (inactive)	44.9 µM (inactive)	58.1 µM (inactive)
O=[N+]([O-])/C(C(Cl)=C(Cl)Cl)=C(/Sc1ccccc1)N1CCCCC1	> 61.9 µM (inactive)	> 100 µM (inactive)	> 100 µM (inactive)	37.8 µM (inactive)	16.5 µM (inactive)	> 100 µM (inactive)	> 61.5 µM (inactive)	> 36.7 µM (inactive)	> 61.5 µM (inactive)	> 100 µM (inactive)	> 66.7 µM (inactive)	> 100 µM (inactive)	43.1 µM (inactive)	> 100 µM (inactive)	> 100 µM (inactive)	> 100 µM (inactive)	> 100 µM (inactive)	> 100 µM (inactive)	13.9 µM (inactive)	> 61.5 µM (inactive)
Cc1cc(C)c(S(=O)(=O)N(CCCCCCN)OCCCON(CCCCCCN)S(=O)(=O)c2c(C)cc(C)cc2C)c(C)c1	1.7 µM (inactive)	1.65 µM (inactive)	1.89 µM (inactive)	1.69 µM (inactive)	1.65 µM (inactive)	1.91 µM (inactive)	1.8 µM (inactive)	2.13 µM (inactive)	1.88 µM (inactive)	1.79 µM (inactive)	1.67 µM (inactive)	1.4 µM (inactive)	1.82 µM (inactive)	2.28 µM (inactive)	1.83 µM (inactive)	1.9 µM (inactive)	1.79 µM (inactive)	1.7 µM (inactive)	1.74 µM (inactive)	2.06 µM (inactive)
COc1cc(NS(C)(=O)=O)ccc1Nc1c2ccccc2nc2c1[nH]c1ccc(NC3OC(CO)C(O)C(O)C3O)cc12 (stereo not given)	0.129 µM (active)	1.3 µM (inactive)	0.26 µM (active)	0.0472 µM (active)	0.248 µM (active)	0.023 µM (active)	0.546 µM (active)	0.798 µM (active)	0.474 µM (active)	< 0.0181 µM (active)	1.36 µM (inactive)	0.444 µM (active)	< 0.0139 µM (active)	< 0.01 µM (active)	0.122 µM (active)	0.0203 µM (active)	0.0251 µM (active)	< 0.0201 µM (active)	0.0213 µM (active)	0.128 µM (active)
N#Cc1nnn(-c2ccccc2)c1O	> 100 µM (inactive)	> 100 µM (inactive)	> 100 µM (inactive)	> 100 µM (inactive)	> 100 µM (inactive)	> 100 µM (inactive)	> 100 µM (inactive)	> 100 µM (inactive)	> 100 µM (inactive)	> 100 µM (inactive)	> 100 µM (inactive)	> 100 µM (inactive)	> 100 µM (inactive)	> 100 µM (inactive)	> 100 µM (inactive)	> 100 µM (inactive)	> 100 µM (inactive)	> 100 µM (inactive)	> 100 µM (inactive)	> 100 µM (inactive)
Nc1nc(N)nc(CCCCc2nc(N)nc(N)n2)n1	> 100 µM (inactive)	> 100 µM (inactive)	> 100 µM (inactive)	> 100 µM (inactive)	> 100 µM (inactive)	> 100 µM (inactive)	> 100 µM (inactive)	> 100 µM (inactive)	> 100 µM (inactive)	> 100 µM (inactive)	> 100 µM (inactive)	> 100 µM (inactive)	> 100 µM (inactive)	> 100 µM (inactive)	> 100 µM (inactive)	> 100 µM (inactive)	> 100 µM (inactive)	> 100 µM (inactive)	> 100 µM (inactive)	> 100 µM (inactive)
CCCCC/C(=N\c1[nH]nnc1C(N)=O)OCC	> 100 µM (inactive)	> 100 µM (inactive)	> 100 µM (inactive)	> 100 µM (inactive)	> 100 µM (inactive)	> 100 µM (inactive)	> 100 µM (inactive)	> 100 µM (inactive)	> 100 µM (inactive)	> 100 µM (inactive)	> 100 µM (inactive)	> 100 µM (inactive)	> 100 µM (inactive)	> 100 µM (inactive)	> 100 µM (inactive)	> 100 µM (inactive)	> 100 µM (inactive)	> 100 µM (inactive)	> 100 µM (inactive)	> 100 µM (inactive)
CC(=O)O[C@H]1CC[C@@]2(C)C(=CC[C@H]3[C@@H]4C[C@H](N5CCCC5)[C@H](OC(C)=O)[C@@]4(C)CC[C@@H]32)C1	> 100 µM (inactive)	> 100 µM (inactive)	> 100 µM (inactive)	> 56.5 µM (inactive)	> 100 µM (inactive)	> 100 µM (inactive)	> 100 µM (inactive)	32 µM (inactive)	> 51.1 µM (inactive)	> 100 µM (inactive)	> 100 µM (inactive)	> 100 µM (inactive)	> 100 µM (inactive)	29.3 µM (inactive)	39.8 µM (inactive)	> 100 µM (inactive)	> 100 µM (inactive)	> 100 µM (inactive)	> 56.1 µM (inactive)	> 100 µM (inactive)
COc1ccc(C2=Cc3nc2c(-c2ccccc2)c2ccc([nH]2)c(-c2ccccc2)c2nc(c(-c4ccccc4)c4ccc([nH]4)c3-c3ccccc3)C=C2)cc1	> 100 µM (inactive)	> 100 µM (inactive)	> 100 µM (inactive)	> 100 µM (inactive)	> 100 µM (inactive)	> 100 µM (inactive)	> 100 µM (inactive)	> 100 µM (inactive)	> 100 µM (inactive)	> 100 µM (inactive)	> 100 µM (inactive)	> 100 µM (inactive)	> 100 µM (inactive)	> 100 µM (inactive)	> 100 µM (inactive)	> 100 µM (inactive)	25.2 µM (inactive)	30.5 µM (inactive)	> 100 µM (inactive)	> 100 µM (inactive)
CCCC[C@@H](C)/C=C1\CN2CCC[C@H]2[C@@](C)(OCc2ccccc2)[C@@H]1O	> 47.8 µM (inactive)	> 50 µM (inactive)	> 50 µM (inactive)	> 50 µM (inactive)	> 30.6 µM (inactive)	> 50 µM (inactive)	> 50 µM (inactive)	> 50 µM (inactive)	> 44 µM (inactive)	> 50 µM (inactive)	> 50 µM (inactive)	> 50 µM (inactive)	> 50 µM (inactive)	> 22.2 µM (inactive)	> 43 µM (inactive)	> 50 µM (inactive)	> 32.3 µM (inactive)	> 34.4 µM (inactive)	> 50 µM (inactive)	> 13.2 µM (inactive)
COC(=O)[C@@H]1C[C@@H](O)CN1C(=O)c1ccc([N+](=O)[O-])cc1[N+](=O)[O-]	> 100 µM (inactive)	> 100 µM (inactive)	50 µM (inactive)	> 100 µM (inactive)	> 100 µM (inactive)	> 100 µM (inactive)	> 100 µM (inactive)	> 100 µM (inactive)	> 100 µM (inactive)	> 100 µM (inactive)	> 100 µM (inactive)	> 100 µM (inactive)	> 100 µM (inactive)	> 100 µM (inactive)	> 100 µM (inactive)	> 100 µM (inactive)	> 100 µM (inactive)	> 100 µM (inactive)	> 100 µM (inactive)	> 100 µM (inactive)
CC[C@]12CN3CCc4c([nH]c5ccccc45)[C@@](C(=O)OC)(c4cc5c(cc4OC)N(C)[C@H]4[C@@](O)(C(=O)OC)[C@H](OC(C)=O)[C@]6(CC)C=CCN7CC[C@]54[C@@H]76)CC(C3)[C@H]1O2 (stereo not given in full) [VINLEUROSINE SULFATE]	0.863 µM (active)	10.2 µM (inactive)	< 0.01 µM (active)	< 0.01 µM (active)	0.441 µM (active)	< 0.014 µM (active)	0.291 µM (active)	< 0.01 µM (active)	< 0.01 µM (active)	0.221 µM (active)	< 0.01 µM (active)	0.804 µM (active)	0.0401 µM (active)	0.039 µM (active)	0.254 µM (active)	< 0.01 µM (active)	0.0716 µM (active)	< 0.0179 µM (active)	0.0368 µM (active)	5.57 µM (inactive)
